{
  "source": "patent US20060035291A1",
  "about": "“Method of detecting cellular immunity and application thereof to drugs” (priority 2001, published 2006)",
  "key": {"healthy donors": {"system": "healthy donors", "settings": "in vivo"}, "[1]": {"system": "HLA-A24 restricted antigen peptide-specific T cells (CTL precursors) in PBMCs", "type": "cell-based, human", "settings": "for IFN-γ production 1st well / IFN-γ production 2nd well / IFN-γ production 3rd well: HLA-A24 positive cervical cancer patient; for CTL precursor induction assay, response level per well: quadricate assay; for IFN-γ production: background deducted"}, "[2]": {"settings": "after more than 5 doses of cancer vaccine"}, "[3]": {"settings": "before vaccination, response to HIV-C1R-A24 cells subtracted"}, "[4]": {"settings": "HRPC Pt. 5, pre-vaccinated PBMCs"}},
  "note": "Like-named read-outs stand apart in the source and are kept apart here. Where no end group is shown, it is not given here.",
  "data": [
    {"sequence": "AFGRHAAL", "values": [
      {"measurement": "number of donors with a significant decrease in skin reaction", "setting": "healthy donors", "value": "one"}
    ]},
    {"sequence": "AFGRHAAL [ART4 13-3G]", "values": [
      {"measurement": "suppressed cases FR ≦ 0.25", "setting": "healthy donors", "value": "1/4"}
    ]},
    {"sequence": "AFLGHAAL", "values": [
      {"measurement": "skin reaction", "setting": "healthy donors", "value": "did not induce skin reaction in any of 4 donors"}
    ]},
    {"sequence": "AFLGHAAL [ART4 13-4G]", "values": [
      {"measurement": "skin test, area of flare", "setting": "healthy donors", "value": 0, "unit": "mm × mm"},
      {"measurement": "suppressed cases FR ≦ 0.25", "setting": "healthy donors", "value": "4/4"}
    ]},
    {"sequence": "AFLRGAAL", "values": [
      {"measurement": "number of donors with a significant decrease in skin reaction", "setting": "healthy donors", "value": "one"}
    ]},
    {"sequence": "AFLRGAAL [ART4 13-5G]", "values": [
      {"measurement": "suppressed cases FR ≦ 0.25", "setting": "healthy donors", "value": "1/4"}
    ]},
    {"sequence": "AFLRHAAG", "values": [
      {"measurement": "number of donors with a significant decrease in skin reaction", "setting": "healthy donors", "value": "one"}
    ]},
    {"sequence": "AFLRHAAG [ART4 13-8G]", "values": [
      {"measurement": "suppressed cases FR ≦ 0.25", "setting": "healthy donors", "value": "1/4"}
    ]},
    {"sequence": "AFLRHAGL [ART4 13-7G]", "values": [
      {"measurement": "suppressed cases FR ≦ 0.25", "setting": "healthy donors", "value": "0/4"}
    ]},
    {"sequence": "AFLRHGAL", "values": [
      {"measurement": "number of donors with a significant decrease in skin reaction", "setting": "healthy donors", "value": "one"}
    ]},
    {"sequence": "AFLRHGAL [ART4 13-6G]", "values": [
      {"measurement": "suppressed cases FR ≦ 0.25", "setting": "healthy donors", "value": "1/4"}
    ]},
    {"sequence": "AGLRHAAL", "values": [
      {"measurement": "skin reaction", "setting": "healthy donors", "value": "did not induce skin reaction in any of 4 donors"}
    ]},
    {"sequence": "AGLRHAAL [ART4 13-2G]", "values": [
      {"measurement": "skin test, area of flare", "setting": "healthy donors", "value": 0, "unit": "mm × mm"},
      {"measurement": "suppressed cases FR ≦ 0.25", "setting": "healthy donors", "value": "4/4"}
    ]},
    {"sequence": "AYDFLYNYL [SART2161]", "values": [
      {"measurement": "rate of skin reaction occurrence (donors)", "setting": "healthy donors", "value": "no such response"}
    ]},
    {"sequence": "DYSARWNEI [SART293]", "values": [
      {"measurement": "frequency of detection in the primary screening (patients)", "setting": "[1]", "value": "4/10"},
      {"measurement": "IFN-γ production 1st well", "setting": "[1]; [2]", "value": 12, "unit": "pg/well"},
      {"measurement": "IFN-γ production 2nd well", "setting": "[1]; [2]", "value": 58, "unit": "pg/well"},
      {"measurement": "IFN-γ production 3rd well", "setting": "[1]; [2]", "value": 21, "unit": "pg/well"},
      {"measurement": "IFN-γ production 1st well", "setting": "[1]; [3]", "value": "<0", "unit": "pg/well"},
      {"measurement": "IFN-γ production 2nd well", "setting": "[1]; [3]", "value": 33, "unit": "pg/well"},
      {"measurement": "IFN-γ production 3rd well", "setting": "[1]; [3]", "value": 99, "unit": "pg/well"},
      {"measurement": "CTL precursor induction assay, response level per well", "setting": "[1]; HRPC Pt. 4, pre-vaccinated PBMCs", "value": "⊚ArB"},
      {"measurement": "CTL precursor induction assay, response level per well", "setting": "[1]; [4]", "value": "⊚AAE"},
      {"measurement": "CTL precursor induction assay, response level per well", "setting": "[1]; HRPC Pt. 9, pre-vaccinated PBMCs", "value": "⊚Ar"},
      {"measurement": "CTL precursor induction assay, response level per well", "setting": "[1]; HRPC Pt. 10, pre-vaccinated PBMCs", "value": "⊚A"}
    ]},
    {"sequence": "EYRGFTQDF [SART1690]", "values": [
      {"measurement": "IFN-γ production 1st well", "setting": "[1]; [2]", "value": 34, "unit": "pg/well"},
      {"measurement": "IFN-γ production 2nd well", "setting": "[1]; [2]", "value": 148, "unit": "pg/well"},
      {"measurement": "IFN-γ production 3rd well", "setting": "[1]; [2]", "value": 329, "unit": "pg/well"},
      {"measurement": "IFN-γ production 1st well", "setting": "[1]; [3]", "value": "<0", "unit": "pg/well"},
      {"measurement": "IFN-γ production 3rd well", "setting": "[1]; [3]", "value": 133, "unit": "pg/well"},
      {"measurement": "CTL precursor induction assay, response level per well", "setting": "[1]; [4]", "value": "C (C, 0.05<p≦0.1 and 50≦net)"},
      {"measurement": "CTL precursor induction assay, response level per well", "setting": "[1]; HRPC Pt. 7, pre-vaccinated PBMCs", "value": "⊚BE"}
    ]},
    {"sequence": "GFHRVIKDF", "values": [
      {"measurement": "number of donors in whom the skin reaction was significantly decreased (<=0.25 of the rate in redness range)", "setting": "healthy donors", "value": 1}
    ]},
    {"sequence": "GFHRVIKDF [CypB 84-1G]", "values": [
      {"measurement": "suppressed cases FR ≦ 0.25", "setting": "healthy donors", "value": "1/7"}
    ]},
    {"sequence": "GFLRHAAL [ART4 13-1G]", "values": [
      {"measurement": "suppressed cases FR ≦ 0.25", "setting": "healthy donors", "value": "0/4"}
    ]},
    {"sequence": "KFGRVIKDF", "values": [
      {"measurement": "number of donors in whom the skin reaction was significantly decreased (<=0.25 of the rate in redness range)", "setting": "healthy donors", "value": 2}
    ]},
    {"sequence": "KFGRVIKDF [CypB 84-3G]", "values": [
      {"measurement": "suppressed cases FR ≦ 0.25", "setting": "healthy donors", "value": "2/7"}
    ]},
    {"sequence": "KFHGVIKDF", "values": [
      {"measurement": "number of donors in whom the skin reaction was significantly decreased (<=0.25 of the rate in redness range)", "setting": "healthy donors", "value": 1}
    ]},
    {"sequence": "KFHGVIKDF [CypB 84-4G]", "values": [
      {"measurement": "suppressed cases FR ≦ 0.25", "setting": "healthy donors", "value": "1/7"}
    ]},
    {"sequence": "KFHRGIKDF", "values": [
      {"measurement": "number of donors in whom the skin reaction was significantly decreased (<=0.25 of the rate in redness range)", "setting": "healthy donors", "value": 0}
    ]},
    {"sequence": "KFHRGIKDF [CypB 84-5G]", "values": [
      {"measurement": "suppressed cases FR ≦ 0.25", "setting": "healthy donors", "value": "0/7"}
    ]},
    {"sequence": "KFHRVGKDF", "values": [
      {"measurement": "number of donors in whom the skin reaction was significantly decreased (<=0.25 of the rate in redness range)", "setting": "healthy donors", "value": 3}
    ]},
    {"sequence": "KFHRVGKDF [CypB 84-6G]", "values": [
      {"measurement": "suppressed cases FR ≦ 0.25", "setting": "healthy donors", "value": "3/7"}
    ]},
    {"sequence": "KFHRVIGDF", "values": [
      {"measurement": "number of donors in whom the skin reaction was significantly decreased (<=0.25 of the rate in redness range)", "setting": "healthy donors", "value": 1}
    ]},
    {"sequence": "KFHRVIGDF [CypB 84-7G]", "values": [
      {"measurement": "suppressed cases FR ≦ 0.25", "setting": "healthy donors", "value": "1/7"}
    ]},
    {"sequence": "KFHRVIKDG", "values": [
      {"measurement": "number of donors in whom the skin reaction was significantly decreased (<=0.25 of the rate in redness range)", "setting": "healthy donors", "value": 2}
    ]},
    {"sequence": "KFHRVIKDG [CypB 84-9G]", "values": [
      {"measurement": "suppressed cases FR ≦ 0.25", "setting": "healthy donors", "value": "2/7"}
    ]},
    {"sequence": "KFHRVIKGF", "values": [
      {"measurement": "number of donors in whom the skin reaction was significantly decreased (<=0.25 of the rate in redness range)", "setting": "healthy donors", "value": 0}
    ]},
    {"sequence": "KFHRVIKGF [CypB 84-8G]", "values": [
      {"measurement": "suppressed cases FR ≦ 0.25", "setting": "healthy donors", "value": "0/7"}
    ]},
    {"sequence": "KGHRVIKDF", "values": [
      {"measurement": "number of donors in whom the skin reaction was significantly decreased (<=0.25 of the rate in redness range)", "setting": "healthy donors", "value": 1}
    ]},
    {"sequence": "KGHRVIKDF [CypB 84-2G]", "values": [
      {"measurement": "suppressed cases FR ≦ 0.25", "setting": "healthy donors", "value": "1/7"}
    ]},
    {"sequence": "RFYIQMCYEL [Flu peptide, reference compound]", "values": [
      {"measurement": "IFN-γ production", "setting": "[1]; protocol A: interval 1 day, 10 stimulations, 11 days, HLA-A24 positive healthy donors", "value": 0, "unit": "pg/mL"},
      {"measurement": "IFN-γ production", "setting": "[1]; protocol B: interval 2 days, 6 stimulations, 11 days, HLA-A24 positive healthy donors", "value": 227, "unit": "pg/mL"},
      {"measurement": "IFN-γ production", "setting": "[1]; protocol C: interval 3 days, 5 stimulations, 13 days, HLA-A24 positive healthy donors", "value": 242, "unit": "pg/mL"},
      {"measurement": "IFN-γ production", "setting": "[1]; protocol D: interval 4 days, 4 stimulations, 13 days, HLA-A24 positive healthy donors", "value": 29, "unit": "pg/mL"},
      {"measurement": "IFN-γ production", "setting": "[1]; protocol E: interval 5 days, 3 stimulations, 11 days, HLA-A24 positive healthy donors", "value": 16, "unit": "pg/mL"},
      {"measurement": "IFN-γ production", "setting": "[1]; protocol F: interval 6 days, 3 stimulations, 13 days, HLA-A24 positive healthy donors", "value": 0, "unit": "pg/mL"},
      {"measurement": "IFN-γ production", "setting": "[1]; protocol G: interval 7 days, 3 stimulations, 21 days, 24-well plate, radiated auto-PBMCs", "value": 150, "unit": "pg/mL"}
    ]},
    {"sequence": "VYDYNCHVDL [SART3109]", "values": [
      {"measurement": "rate of skin reaction occurrence", "setting": "healthy donors", "value": 17, "unit": "%"},
      {"measurement": "rate of skin reaction occurrence (donors)", "setting": "healthy donors", "value": "7/41"}
    ]}
  ]
}
